Laboratory results published in US10364466B2, “Biological markers for identifying patients for treatment with VEGF antagonists” (Genentech, Inc., priority 2012, dated 2019).

Legend:
[1] = tested on: VDV gene expression; assay: Microarray VDV signature expression in pre- and post-treatment biopsies of inflammatory breast cancer patients (Table 3, human IBC Log2FC); type: in vivo; settings: 19 inflammatory breast cancer patients, one dose single agent, 21 days post-treatment; published micro-array data (Wedam et al.)
Excerpt: The log2 ratio intensity values from Agilent WMG microarrays and the Robust Multi-array Average (RMA) normalized intensities (also on the logarithmic scale) from Affymetrix Mouse430.2 microarrays were imported into R as expression sets using the package “Biobase,” and a linear model was fitted to each feature using the functions “lmFit” and “eBayes” in the “limma” package. […] The union of these genes was taken as representative of the VEGF-responsive vasculature. The extent to which this VDV gene expression signature varied in other experiments was determined by fitting a linear model to the microarray data using the “limma” package (as above) and calculating the mean of the t-statistics from gene in the signature according to the method of Falcon and Gentleman (Bioinformatics. 23: 257-258, 2007).
As depicted in Table 3 below, the genes in the VDV signature were ordered by the extent of anti-VEGF response in the human IBC trial. Orthologs between human and mouse were mapped using the Ensembl Biomart, where “Log 2FC” represents the log(2) fold-change of the gene's expression post-Avastin treatment as compared to pre-treatment. The 19 paired patient samples and the murine PNETs were analyzed on Agilent microarrays. […]

[2] = tested on: metastatic colorectal carcinoma (CRC); assay: NO16966 first-line metastatic colorectal cancer trial, PFS and OS, stratified by 22-gene VDV signature; type: in vivo, human
Procedure: Sections from archival tumor samples from patients enrolled in the XELOX treatment arms of NO 16966 were evaluated by a pathologist and high tumor content area macro-dissected for subsequent RNA isolation using the FFPE RNA isolation kit (Roche; 7-10 sections per patient). RNA levels were assessed after cDNA synthesis following standard techniques, with the qPCR protocol on the Fluidigm Biomark platform according to the manufacturer's protocol.
Quantitative histological data from various animal experiments were plotted using Microsoft Excel software. Student's t test was applied to compare data sets of interest and differences with p values <0.05 were considered significant. 103 biopsies out of 1017 patients from the XELOX (capecitabine and oxaliplatin)-containing arm in the NO16966 trial were analyzed for the gene expression of VDV genes. qRT-PCR values were normalized by the housekeeping genes and relative to a universal reference sample to derive delta-delta Ct values. Subsequently, the delta-delta Ct value of each of the 22 VDV genes was mean centered and variance scaled to a Z-score.
For each sample i for which all of the VDV genes were analyzed, a VDV signature score (VDVi) was calculated. The VDVi represents a weighted average of z-scores across the analyzed VDV genes and is given by the algorithm:
[formula] wherein Zg,i is the standardized z-score of the qRT-PCR value for gene g of sample i and n, in this instance, is 22. The VDVi value provides quantitative information regarding the extent to which the expression of a particular set of genes is collectively overexpressed or underexpressed relative to a centered mean.
To compare the clinical outcomes (PFS and OS) between marker and/or treatment subgroups, log-rank tests and Cox regression were used, with median time calculated by the Kaplan-Meier analysis. All statistical tests were two-sided.
To test if VDV gene expression could correlate with clinical outcomes, we analyzed VDV gene expression levels in available pre-treatment archival tumor tissue from 103 patients (biomarker evaluable subpopulation) that were enrolled in the XELOX-containing arms. Due to the limited quality and amount of RNA from these clinical samples, gene expression was analyzed in a previously designed and validated “angiogenesis” Fluidigm qRT-PCR chip (FIG. 8B) that included 4 different housekeeping genes (for gene expression normalization), VEGF (as a control), and 22 representative proximal and distal VDV genes comprising: (i) pan-vascular markers such as CD31, CD34, and VE-CADH as indicators of MVD; (ii) key VEGF pathway components and proxVDV genes, including VEGFR-1, VEGFR-2, VEGFR-3, EPHRINB2, NRPs, ESM1, NID2, COL4a2, and LAMA4a; and (iii) additional VDV genes that are components of endothelial signaling pathways and potential modulators of VDV biology, including DLL-4, NOTCH1, ALK1, and EGFL7 (see FIG. 9A for validation of this compacted 22 VDV gene signature).

[3] = tested on: metastatic colorectal carcinoma (CRC); settings: whole NO16966 study, Saltz et al. 2008; cited from earlier work
[4] = tested on: metastatic colorectal carcinoma (CRC); settings: patients with metastatic CRC, Hurwitz et al. 2004; cited from earlier work
[5] = 103 biomarker evaluable patients, XELOX arms

Substance: bevacizumab: recombinant humanized anti-VEGF monoclonal antibody
- VDV transcripts post-treatment vs pre-treatment biopsies [1]: clear down regulation
- OS HR, addition to chemotherapy [2, 5]: 0.45
- PFS HR, addition to chemotherapy [2, 5]: 0.59
- OS HR, addition to chemotherapy vs chemotherapy alone ([2]; VDV high patients): 0.31
- PFS HR, addition to chemotherapy vs chemotherapy alone ([2]; VDV high patients): 0.36
- OS HR, combination with chemotherapy vs chemotherapy alone ([2]; VDV low patients): 0.58
- PFS HR, combination with chemotherapy vs chemotherapy alone ([2]; VDV low patients): 0.88
- OS differences (secondary endpoint), addition to chemotherapy [3]: did not reach statistical significance
- primary endpoint of PFS, addition to chemotherapy [3]: significantly improved
- progression free survival (PFS) and overall survival (OS), combination with chemotherapy [4]: increase
